The species named for test [1] is Rattus norvegicus. The test can be described thus: Effective dose for drug discrimination assay in rats using LSD as training drug. Format: functional.
Test [2] can be described thus: selectivity is the ratio between IC50 values of 5-HTand DA.
The target in test [3] is T1, Norepinephrine transporter (Rattus norvegicus, UniProt Q9WTR4). The test can be described thus: (§1) Compound was tested for the ability to inhibit [3H]norepinephrine binding to Norepinephrine transporter in rat synaptosomes. Format: subcellular, Brain.
T1 sequence (Q9WTR4 whole entry): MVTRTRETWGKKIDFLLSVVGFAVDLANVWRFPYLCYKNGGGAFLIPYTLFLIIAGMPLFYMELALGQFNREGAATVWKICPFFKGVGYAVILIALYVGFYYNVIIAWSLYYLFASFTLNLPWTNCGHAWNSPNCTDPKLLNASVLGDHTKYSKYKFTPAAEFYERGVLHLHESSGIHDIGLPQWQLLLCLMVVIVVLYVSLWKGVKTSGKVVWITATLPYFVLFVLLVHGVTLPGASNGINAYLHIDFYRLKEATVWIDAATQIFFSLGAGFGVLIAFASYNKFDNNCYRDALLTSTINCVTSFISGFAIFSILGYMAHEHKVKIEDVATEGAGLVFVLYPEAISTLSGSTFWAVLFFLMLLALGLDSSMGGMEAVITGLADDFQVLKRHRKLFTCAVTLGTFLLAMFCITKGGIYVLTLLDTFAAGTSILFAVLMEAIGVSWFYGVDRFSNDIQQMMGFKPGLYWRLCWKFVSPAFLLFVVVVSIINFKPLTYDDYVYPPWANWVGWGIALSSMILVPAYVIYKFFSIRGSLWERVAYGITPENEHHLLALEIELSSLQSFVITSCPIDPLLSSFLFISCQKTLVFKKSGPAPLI
The species named for test [4] is Rattus norvegicus. Description: Compound was tested for its ability to inhibit [3H]dopamine uptake in rat synaptosomes. Particulars: Brain. Format: functional.
For test [5], the species on record is Rattus norvegicus. Description: Effective dose for drug discrimination assay in rats using (+)-Amphitamine as training drug; NS = No substitution. Format: functional, organism-based.
The species entered for test [6] is Rattus norvegicus. The test can be described thus: Effective dose for drug discrimination assay in rats using LSD as training drug. In kind it is functional.
Test [7] concerns the target Sodium-dependent serotonin transporter (Rattus norvegicus, UniProt P31652). The test can be described thus: Activity towards Serotonin transporter was determined by the ability to inhibit [3H]5-HT uptake in rat synaptosomes. Format: subcellular, Brain.
The species named for test [8] is Rattus norvegicus. Description: Effective dose for drug discrimination assay in rats using DOIas training drug. Format: functional.
Test [9] is filed under the species Rattus norvegicus. Description: Effective dose for drug discrimination assay in rats using (+)-MBDB as training drug. Format: functional.
For test [10], the species on record is Rattus norvegicus. Description: Effective dose for drug discrimination assay in rats using MMAI as training drug. Format: functional.
For test [11], the species on record is Rattus norvegicus. The test can be described thus: Effective dose for drug discrimination assay in rats using (+)-MBDB as training drug. Format: functional.
The species named for test [12] is Rattus norvegicus. Description: Effective dose for drug discrimination assay in rats using DOI as training drug. Format: functional.
Test [13] concerns the target T1, Norepinephrine transporter. The description is as §1. In kind it is functional, subcellular, Brain.
Test [14] is filed under the species Rattus norvegicus. The test can be described thus: Effective dose for drug discrimination assay in rats using (+)-amphetamine as training drug. In kind it is functional.

Calls of active or inactive are those of the source. The rule behind the calls is not given here.

Chain of Sodium-dependent serotonin transporter (P31652 whole entry): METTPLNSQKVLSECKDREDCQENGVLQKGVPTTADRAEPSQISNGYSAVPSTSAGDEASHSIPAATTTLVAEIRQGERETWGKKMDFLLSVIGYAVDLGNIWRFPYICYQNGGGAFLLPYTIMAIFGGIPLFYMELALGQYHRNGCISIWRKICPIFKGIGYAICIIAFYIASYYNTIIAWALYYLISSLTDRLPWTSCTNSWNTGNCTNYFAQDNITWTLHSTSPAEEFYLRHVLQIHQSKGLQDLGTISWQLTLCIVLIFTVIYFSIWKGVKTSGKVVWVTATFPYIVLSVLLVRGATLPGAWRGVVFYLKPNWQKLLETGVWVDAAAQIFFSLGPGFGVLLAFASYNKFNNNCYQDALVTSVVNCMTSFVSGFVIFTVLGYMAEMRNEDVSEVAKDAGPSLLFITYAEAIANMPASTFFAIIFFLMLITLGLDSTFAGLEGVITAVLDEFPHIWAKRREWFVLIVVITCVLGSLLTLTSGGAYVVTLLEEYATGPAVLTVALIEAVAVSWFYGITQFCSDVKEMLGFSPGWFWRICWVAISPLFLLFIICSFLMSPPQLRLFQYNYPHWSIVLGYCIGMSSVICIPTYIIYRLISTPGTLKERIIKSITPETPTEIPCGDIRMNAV

`CCN(CC)C(=O)[C@@H]1C=C2c3cccc4[nH]cc(c34)C[C@H]2N(C)C1` [LYSERGIDE] had an ED50 in the test filed under Rattus norvegicus [1] of 0.04 µmol/kg.
With `Cc1cc(CC(C)N)cc2c1OCO2` (stereo not drawn), the Selectivity in test [2] amounted to 108. Also, the results for the IC50 (in [3]; in the test listed under Rattus norvegicus [4]; in [7]) were 1490 nM, 11600 nM and 107 nM, respectively. In the test listed under Rattus norvegicus [5], the ED50 entry is “inactive”. Further, the median effective dose (ED50) was 8.72 µmol/kg in the test listed under Rattus norvegicus [6], 2.11 µmol/kg in the test listed under Rattus norvegicus [8], 2 µmol/kg in the test listed under Rattus norvegicus [9] and 1.53 µmol/kg in the test filed under Rattus norvegicus [10].
As for `Cc1cc2c(cc1CC(C)N)OCO2` (stereo not drawn), the Selectivity in test [2] is 36. The results for the half-maximal inhibitory concentration (IC50) (in test [3]; in the test filed under Rattus norvegicus [4]; in test [7]) were 4600 nM, 28300 nM and 783 nM, respectively. For the same compound, the ED50 entry in the test filed under Rattus norvegicus [5] was “inactive”. Further, the ED50 in the test listed under Rattus norvegicus [6] was determined as 17.4 µmol/kg; in the test listed under Rattus norvegicus [8] it was 8.72 µmol/kg; in the test filed under Rattus norvegicus [10], 7.65 µmol/kg; in the test listed under Rattus norvegicus [11] it was 17.4 µmol/kg.
Consider `CC(N)Cc1ccc2c(c1)OCO2` (stereo not drawn) [TENAMFETAMINE], for which, in test [2], the Selectivity turned out to be 2. The IC50 in test [3] came to 266 nM; in the test filed under Rattus norvegicus [4], 890 nM; in test [7], 478 nM. In the test listed under Rattus norvegicus [5], the ED50 result is “inactive”. This compound also had a median effective dose (ED50) in the test filed under Rattus norvegicus [9] of 2.07 µmol/kg.
In the test filed under Rattus norvegicus [12], `COc1cc(CC(C)N)c(OC)cc1I` (stereo not drawn) gave an ED50 of 0.3 µmol/kg.
As for `CC(N)Cc1ccc(I)cc1` (stereo not drawn) [p-IODOAMPHETAMINE], the Selectivity in test [2] was determined as 7. Also, the values for the 50% inhibitory concentration (IC50) (in test [3]; in the test filed under Rattus norvegicus [4]; in test [7]) were 993 nM, 589 nM and 82 nM, respectively.
For the compound `CC(N)Cc1ccc2c(c1)CCC2` (stereo not drawn), the Selectivity in test [2] stood at 23. In addition, the IC50 in [3] was found to be 849 nM; in [7], 82 nM.
`COc1cc2c(cc1C)CC(N)C2` (stereo not drawn): in the test filed under Rattus norvegicus [10], the median effective dose (ED50) is 1.83 µmol/kg.
With `Cc1c(CC(C)N)ccc2c1OCO2` (stereo not drawn), the Selectivity in test [2] was determined as 129. Moreover, the concentration for half-maximal inhibition (IC50) in the test filed under Rattus norvegicus [4] was found to be 12000 nM; in test [7] it was 93 nM; in test [13] it was 1940 nM. In addition, the ED50 result in the test filed under Rattus norvegicus [5] is “inactive”. Further, the ED50 is 4.1 µmol/kg in the test listed under Rattus norvegicus [6], 1.7 µmol/kg in the test filed under Rattus norvegicus [8], 1.83 µmol/kg in the test listed under Rattus norvegicus [9] and 1.71 µmol/kg in the test filed under Rattus norvegicus [10].
For the compound `C[C@H](N)Cc1ccccc1` [DEXTROAMPHETAMINE], in the test filed under Rattus norvegicus [14], it took a dose of 1.06 µmol/kg to reach the 50% effect level (ED50).
Take `CSc1ccc(CC(C)N)cc1` (stereo not drawn) [4-METHYLTHIOAMPHETAMINE]: the Selectivity in test [2] worked out at 42. Moreover, the IC50 in test [3] stood at 2380 nM; in the test listed under Rattus norvegicus [4] it was 3070 nM; in [7], 74 nM.

By ED50 is commonly meant the dose at which the effect has come halfway, by size or by number of responders. Broadly, the IC50 is the point on the concentration scale where inhibition reaches its midpoint.

Source of the values: ChEMBL document CHEMBL1131486, “Synthesis and pharmacological evaluation of ring-methylated derivatives of 3,4-(methylenedioxy)amphetamine (MDA)” (J Med Chem, 1998).
